Test results as given in ChEMBL document CHEMBL1938322, “Towards a modern definition of vitamin E-evidence for a quinone hypothesis” (Bioorg Med Chem Lett, 2012).
In brackets after ≈: the same amount, converted by molar mass.

Tests used:
[1] = test system: Fibroblast; experiment: Cytoprotective activity against BSO-induced human FRDA primary patient fibroblasts compound pretreated 12 hrs prior to BSO-induction measured after 48 hrs by calcein-AM-based cell viability assay; format: functional
[2] = Growth inhibition of human FRDA primary patient fibroblasts after 48 hrs by calcein-AM-based cell viability assay; parameters: species or system Fibroblast; details: for GI50 at 48 h: FRDA primary patient fibroblasts
[3] = Therapeutic index, ratio of LC50 to GI50 for human FRDA primary patient fibroblasts; format: cell-based, Fibroblast; details: for selectivity ratio: FRDA primary patient fibroblasts, read-out: TI
[4] = species on record: Rattus norvegicus; experiment: Prolongation of partial thromboplastin time in female Wistar rat; format: ADME, organism-based; details: in vivo
[5] = test system: Fibroblast; experiment: Ratio of CoQ10 EC50 to compound EC50 for cytoprotection against BSO-induced human FRDA primary patient fibroblasts; format: functional
[6] = test system: Fibroblast; experiment: Ratio of idebenone EC50 to compound EC50 for cytoprotection against BSO-induced human FRDA primary patient fibroblasts; format: functional
[7] = test system: Fibroblast; experiment: Ratio of alpha-tocopherol EC50 to compound EC50 for cytoprotection against BSO-induced human FRDA primary patient fibroblasts; format: functional
[8] = Growth inhibition of human primary fibroblasts after 48 hrs by calcein-AM-based cell viability assay; parameters: species or system Fibroblast
[9] = Cmax in mouse plasma at 10 mg/kg, po by HPLC analysis; format: ADME, organism-based; parameters: dose 10 mg/kg, route oral
[10] = Cmax in rat plasma at 100 mg/kg, po by HPLC analysis; format: ADME, organism-based; parameters: dose 100 mg/kg, route oral
[11] = Cmax in dog plasma at 25 mg/kg, po by HPLC analysis; format: ADME, organism-based, Canis lupus familiaris; parameters: dose 25 mg/kg, route oral
[12] = Tmax in mouse plasma at 10 mg/kg, po by HPLC analysis; format: ADME, organism-based; parameters: dose 10 mg/kg, route oral
[13] = Tmax in rat plasma at 100 mg/kg, po by HPLC analysis; format: ADME, organism-based; parameters: dose 100 mg/kg, route oral
[14] = Tmax in dog plasma at 25 mg/kg, po by HPLC analysis; format: ADME, organism-based, Canis lupus familiaris; parameters: dose 25 mg/kg, route oral
[15] = AUCt in mouse plasma at 5 mg/kg, iv by HPLC analysis; format: ADME, organism-based; parameters: dose 5 mg/kg, route intravenous
[16] = AUCt in mouse plasma at 10 mg/kg, po by HPLC analysis; format: ADME, organism-based; parameters: dose 10 mg/kg, route oral
[17] = AUCt in rat plasma at 100 mg/kg, po by HPLC analysis; format: ADME, organism-based; parameters: dose 100 mg/kg, route oral
[18] = AUCt in dog plasma at 25 mg/kg, po by HPLC analysis; format: ADME, organism-based, Canis lupus familiaris; parameters: dose 25 mg/kg, route oral
[19] = AUC (0 to infinity) in mouse plasma at 5 mg/kg, iv by HPLC analysis; format: ADME, organism-based; parameters: time infinity, dose 5 mg/kg, route intravenous
[20] = AUC (0 to infinity) in mouse plasma at 10 mg/kg, po by HPLC analysis; format: ADME, organism-based; parameters: time infinity, dose 10 mg/kg, route oral
[21] = AUC (0 to infinity) in rat plasma at 100 mg/kg, po by HPLC analysis; format: ADME, organism-based; parameters: time infinity, dose 100 mg/kg, route oral
[22] = AUC (0 to infinity) in dog plasma at 25 mg/kg, po by HPLC analysis; format: ADME, organism-based, Canis lupus familiaris; parameters: time infinity, dose 25 mg/kg, route oral
[23] = Half life in mouse plasma at 5 mg/kg, iv by HPLC analysis; format: ADME, organism-based; parameters: dose 5 mg/kg, route intravenous
[24] = Half life in mouse plasma at 10 mg/kg, po by HPLC analysis; format: ADME, organism-based; parameters: dose 10 mg/kg, route oral
[25] = Half life in rat plasma at 100 mg/kg, po by HPLC analysis; format: ADME, organism-based; parameters: dose 100 mg/kg, route oral
[26] = Half life in dog plasma at 25 mg/kg, po by HPLC analysis; format: ADME, organism-based, Canis lupus familiaris; parameters: dose 25 mg/kg, route oral
[27] = Oral bioavailability in mouse plasma at 10 mg/kg by HPLC analysis; format: ADME, organism-based
[28] = Clearance in mouse plasma at 5 mg/kg, iv by HPLC analysis; format: ADME, organism-based; parameters: dose 5 mg/kg, route intravenous
[29] = Volume of distribution in mouse plasma at 5 mg/kg, iv by HPLC analysis; format: ADME, organism-based; parameters: dose 5 mg/kg, route intravenous
[30] = test system: Salmonella typhimurium; experiment: Mutagenic activity in Salmonella Typhimurium by Ames test; format: toxicity, organism-based; details: salmonella enterica subsp. enterica serovar typhimurium
[31] = test system: CHO; experiment: Induction of micronucleation in CHO cells; format: cell-based, Cricetulus griseus; details: chinese hamster
[32] = biological target: Cytochrome P450 3A4 (Homo sapiens, UniProt P08684); experiment: Inhibition of […] at 10 uM; format: ADME
Sequence of Cytochrome P450 3A4 (P08684 whole entry): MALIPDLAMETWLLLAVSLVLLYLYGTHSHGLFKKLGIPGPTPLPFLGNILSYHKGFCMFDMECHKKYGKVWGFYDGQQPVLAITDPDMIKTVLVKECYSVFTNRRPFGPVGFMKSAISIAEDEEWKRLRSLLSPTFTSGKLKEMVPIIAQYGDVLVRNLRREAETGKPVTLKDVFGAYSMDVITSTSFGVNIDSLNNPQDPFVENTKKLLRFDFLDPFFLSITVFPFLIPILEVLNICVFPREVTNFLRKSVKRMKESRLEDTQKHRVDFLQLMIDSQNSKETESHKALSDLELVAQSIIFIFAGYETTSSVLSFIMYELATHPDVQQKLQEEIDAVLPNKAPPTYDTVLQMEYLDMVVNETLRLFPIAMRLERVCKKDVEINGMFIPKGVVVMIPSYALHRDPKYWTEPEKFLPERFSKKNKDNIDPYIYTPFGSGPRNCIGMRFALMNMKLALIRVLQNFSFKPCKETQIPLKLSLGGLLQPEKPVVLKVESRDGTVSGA

[33] = biological target: Cytochrome P450 2C9 (Homo sapiens, UniProt P11712); experiment: Inhibition of CYP2C9 at 10 uM; format: ADME
Sequence of Cytochrome P450 2C9 (P11712 whole entry): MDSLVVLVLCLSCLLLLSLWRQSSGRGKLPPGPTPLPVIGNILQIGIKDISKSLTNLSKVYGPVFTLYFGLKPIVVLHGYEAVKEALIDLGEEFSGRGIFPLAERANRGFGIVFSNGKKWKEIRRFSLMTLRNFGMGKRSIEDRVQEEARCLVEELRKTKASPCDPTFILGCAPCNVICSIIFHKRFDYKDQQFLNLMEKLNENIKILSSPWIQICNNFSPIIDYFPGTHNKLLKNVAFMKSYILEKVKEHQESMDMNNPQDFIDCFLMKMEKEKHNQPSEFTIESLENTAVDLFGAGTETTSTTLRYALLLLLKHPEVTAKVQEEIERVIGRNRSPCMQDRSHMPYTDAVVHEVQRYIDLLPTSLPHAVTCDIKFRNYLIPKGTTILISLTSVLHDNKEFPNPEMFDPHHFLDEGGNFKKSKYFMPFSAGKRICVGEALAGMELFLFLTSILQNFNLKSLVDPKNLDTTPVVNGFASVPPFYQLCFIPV

[34] = biological target: Cytochrome P450 2C19 (Homo sapiens, UniProt P33261); experiment: Inhibition of CYP2C19 at 10 uM; format: ADME
Sequence of Cytochrome P450 2C19 (P33261 whole entry): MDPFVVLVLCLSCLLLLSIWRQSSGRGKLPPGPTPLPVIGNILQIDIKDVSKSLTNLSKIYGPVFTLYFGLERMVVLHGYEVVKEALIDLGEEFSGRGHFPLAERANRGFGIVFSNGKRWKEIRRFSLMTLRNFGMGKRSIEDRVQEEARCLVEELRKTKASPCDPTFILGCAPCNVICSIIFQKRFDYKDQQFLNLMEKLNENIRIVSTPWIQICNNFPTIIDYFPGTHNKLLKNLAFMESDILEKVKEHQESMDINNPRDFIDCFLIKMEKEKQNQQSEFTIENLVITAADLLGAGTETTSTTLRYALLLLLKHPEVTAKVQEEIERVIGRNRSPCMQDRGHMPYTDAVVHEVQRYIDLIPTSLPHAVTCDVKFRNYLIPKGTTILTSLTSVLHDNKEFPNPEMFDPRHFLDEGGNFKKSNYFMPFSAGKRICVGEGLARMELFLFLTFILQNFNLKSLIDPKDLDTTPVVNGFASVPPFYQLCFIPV

[35] = biological target: Cytochrome P450 2D6 (Homo sapiens, UniProt P10635); experiment: Inhibition of CYP2D6 at 10 uM; format: ADME
Sequence of Cytochrome P450 2D6 (P10635 whole entry): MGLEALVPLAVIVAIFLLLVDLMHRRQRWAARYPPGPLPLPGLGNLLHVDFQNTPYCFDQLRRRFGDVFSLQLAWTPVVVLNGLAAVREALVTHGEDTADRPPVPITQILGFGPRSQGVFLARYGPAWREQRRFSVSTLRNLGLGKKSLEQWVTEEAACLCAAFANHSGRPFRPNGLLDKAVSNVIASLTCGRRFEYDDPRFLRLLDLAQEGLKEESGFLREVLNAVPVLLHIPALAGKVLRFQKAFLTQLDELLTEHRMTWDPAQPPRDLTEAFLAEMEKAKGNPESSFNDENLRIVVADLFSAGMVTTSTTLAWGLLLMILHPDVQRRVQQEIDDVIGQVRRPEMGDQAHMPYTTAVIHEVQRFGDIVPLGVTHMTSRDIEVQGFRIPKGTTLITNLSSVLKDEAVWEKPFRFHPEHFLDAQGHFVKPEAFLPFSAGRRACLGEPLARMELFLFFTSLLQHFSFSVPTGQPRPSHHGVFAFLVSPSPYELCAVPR

[36] = biological target: T1, Cytochrome P450 1A2 (Homo sapiens, UniProt P05177); experiment: Inhibition of CYP1A2 at 10 uM; format: ADME
T1 sequence (P05177 whole entry): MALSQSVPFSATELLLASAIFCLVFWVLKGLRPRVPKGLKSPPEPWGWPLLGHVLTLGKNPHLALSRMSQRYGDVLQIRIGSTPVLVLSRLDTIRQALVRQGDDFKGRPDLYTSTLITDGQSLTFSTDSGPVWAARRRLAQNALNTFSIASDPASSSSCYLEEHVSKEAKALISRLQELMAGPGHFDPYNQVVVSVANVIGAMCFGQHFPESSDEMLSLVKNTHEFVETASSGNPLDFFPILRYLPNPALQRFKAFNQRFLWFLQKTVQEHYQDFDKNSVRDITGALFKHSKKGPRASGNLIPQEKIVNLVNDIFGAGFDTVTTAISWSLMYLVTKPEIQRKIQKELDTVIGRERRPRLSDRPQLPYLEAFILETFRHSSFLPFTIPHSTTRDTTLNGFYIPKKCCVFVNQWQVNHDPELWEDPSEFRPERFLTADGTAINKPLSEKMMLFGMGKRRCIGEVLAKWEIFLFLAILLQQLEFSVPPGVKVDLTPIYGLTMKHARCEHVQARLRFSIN

[37] = Solubility of the compound; format: physicochemical
[38] = test system: Rattus norvegicus; experiment: Toxicity in Wistar rat assessed as changes in body weight up to 2000 mg/kg, qd for 14 days; format: organism-based; parameters: dose 2000 mg/kg; details: in vivo, 336 h
[39] = test system: Rattus norvegicus; experiment: Toxicity in Wistar rat assessed as changes in food intake up to 2000 mg/kg, qd for 14 days; format: organism-based; parameters: dose 2000 mg/kg; details: in vivo, 336 h
[40] = test system: Rattus norvegicus; experiment: Toxicity in Wistar rat assessed as changes in water intake up to 2000 mg/kg, qd for 14 days; format: organism-based; parameters: dose 2000 mg/kg; details: in vivo, 336 h
[41] = species on record: Rattus norvegicus; experiment: Prolongation of partial thromboplastin time in male Wistar rat; format: ADME, organism-based; details: in vivo

Compound: COC1=C(OC)C(=O)C(CCCCCCCCCCO)=C(C)C1=O [IDEBENONE]
- EC50 ([1]; Homo sapiens, Fibroblast): 0.592 µM
- GI50 at 48 h [2]: 98 µM
- selectivity ratio [3]: 165

Compound: COC1=C(OC)C(=O)C(C/C=C(\C)CC/C=C(\C)CC/C=C(\C)CC/C=C(\C)CC/C=C(\C)CC/C=C(\C)CC/C=C(\C)CC/C=C(\C)CC/C=C(\C)CCC=C(C)C)=C(C)C1=O [UBIDECARENONE]
- GI50 at 48 h [2]: 220 µM

Compound: CC1=C(C)C(=O)C(CC[C@](C)(O)CCC[C@H](C)CCC[C@H](C)CCCC(C)C)=C(C)C1=O
- Activity [4]: Dose-dependent effect
- Ratio EC50 [5]: 200
- Ratio EC50 [6]: 35
- Ratio EC50 [7]: 7
- Activity [1]: Dose-dependent effect
- EC50 ([1]; Homo sapiens, Fibroblast): 0.036 µM
- GI50 at 48 h [2]: ≥ 300 µM
- GI50 at 48 h [8]: ≥ 300 µM
- selectivity ratio [3]: ≥ 8330
- Cmax [9]: 519 ng/mL
- Cmax [10]: 3010 ng/mL
- Cmax [11]: 2370 ng/mL
- Tmax [12]: 1 h
- Tmax [13]: 4 h
- Tmax [14]: 2 h
- AUC(0-t) [15]: 3980 ng·h/mL
- AUC(0-t) [16]: 1980 ng·h/mL
- AUC(0-t) [17]: 26400 ng·h/mL
- AUC(0-t) [18]: 14200 ng·h/mL
- AUC(0-inf) [19]: 4240 ng·h/mL
- AUC(0-inf) [20]: 2070 ng·h/mL
- AUC(0-inf) [21]: 27900 ng·h/mL
- AUC(0-inf) [22]: 16800 ng·h/mL
- half-life [23]: 16.2 h
- half-life [24]: 5.8 h
- half-life [25]: 16.6 h
- half-life [26]: 23.7 h
- bioavailability [27]: 24%
- clearance [28]: 20 mL/min/kg
- Vd [29]: 27.6 L/kg
- Activity [30]: Non-toxic
- Activity [31]: Non-toxic
- inhibition (INH) [32]: Not Active
- inhibition (INH) [33]: Not Active
- inhibition (INH) [34]: Not Active
- inhibition (INH) [35]: Not Active
- inhibition (INH) [36]: Not Active
- solubility [37]: 10 µM (≈ 4.47 µg/mL)
- Activity [38]: Non-toxic
- Activity [39]: Non-toxic
- Activity [40]: Non-toxic
- Activity [41]: Dose-dependent effect

Compound: VITAMIN E
- EC50 ([1]; fibroblast): 0.234 µM
- GI50 ([2]; fibroblast, 48 h): ≥ 300 µM
- TI ([3]; fibroblast): >= 1282
